Tests used:
human GnRHR = molecular target: T1, human GnRHR (Homo sapiens, UniProt P30968); assay: Tag-Lite receptor binding assay; settings: Hek293 cells transiently transfected with human GnRHR; green-labelled GnRHR binding peptide; read-out: Potency in receptor binding assay using TAG-LITE technology, given as IC50
T1 construct: host or cells: HEK293 (transient transfection), purchased as frozen labelled cells
T1 sequence (P30968 1-328): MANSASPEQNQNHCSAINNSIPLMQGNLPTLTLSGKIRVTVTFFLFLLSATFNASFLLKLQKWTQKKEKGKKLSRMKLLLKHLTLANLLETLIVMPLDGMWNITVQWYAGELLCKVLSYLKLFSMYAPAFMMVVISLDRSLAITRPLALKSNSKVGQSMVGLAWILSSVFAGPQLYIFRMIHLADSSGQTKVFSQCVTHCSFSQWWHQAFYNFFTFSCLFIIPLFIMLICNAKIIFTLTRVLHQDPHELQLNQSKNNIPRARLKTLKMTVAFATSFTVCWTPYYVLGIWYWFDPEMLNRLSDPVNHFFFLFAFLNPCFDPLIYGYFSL
Text: This binding assay is based on the fluorescence resonance energy transfer between fluorescence donor labelled human GnRHR and a green-labelled GnRHR binding peptide. Compounds interfering with the ligand binding side of the human GnRHR will replace the labelled peptide resulting in a signal decrease. The assay principle was established by Cisbio Bioassays (Bagnols-sur-Cèze Cedex, France) and further details are available on their homepage.
The assay procedure was further optimized for use in-house with reduced assay volumes. Frozen Hek293 cells, transiently transfected with human GnRHR and Terbium-labelling of the receptor, were supplied by Cisbio Bioassays as well as Tag-Lite buffer and green-labelled GnRHR binding peptide. Cells were thawed and transferred to cold Tag-Lite buffer. A volume of 8 μl of this cell suspension were added to 100 nl of a 160-fold concentrated solution of the test compound in DMSO pre-dispensed in a well of a white low-volume 384-well microtiter plate (Greiner Bio-One, Frickenhausen, Germany). The mixture was incubated for 5 min at room temperature. In the next step either 4 μl Tag-Lite buffer or as control 4 μl of an exceeding amount unlabelled binding peptide in Tag-Lite buffer were transferred to the mixture. The green-labelled GnRHR binding peptide was added in a final step at EC50 in a volume of 4 μl Tag-Lite buffer. After an incubation of 1 h at room temperature plates were measured in a microplate reader, e.g. a PHERAstar (BMG Labtechnologies, Offenburg, Germany) by using a specific optic module.
A ratio from the fluorescence emissions at 520 nm (green fluorescence) and at 490 nm (background signal of Terbium-labelled GnRHR) was calculated and the data were normalized (reaction without test compound=0% inhibition of binding of green-labelled peptide; reaction without test compound with exceeding amount unlabelled binding peptide=100% inhibition of binding of green-labelled peptide). On the same microtiter plate, compounds were tested at 10 different concentrations in the range of 12.5 μM to 0.64 nM (12.5 μM, 4.2 μM, 1.4 μM, 0.46 μM, 0.15 μM, 51 nM, 17 nM, 5.7 nM, 1.9 nM and 0.64 nM; dilution series prepared before the assay at the level of the 160-fold conc. stock solutions by serial 1:3 dilutions in 100% DMSO) in duplicate values for each concentration. By using an in-house software, the IC50 values were calculated by a 4 parameter fit.

human GnRH receptor = molecular target: T2, human GnRH receptor (Homo sapiens, UniProt P30968); assay: IP-One HTRF assay with buserelin (at EC80) stimulation; format: cell-based; settings: CHO cells stably expressing human GnRH receptor, read-out: Potency in IP-One HTRF assay, given as IC50
T2 sequence (P30968 1-328): T1 sequence (P30968 1-328)
Method in brief: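 Ten-point duplicate titrations (20 μM to 1 nM) were fitted by 4-parameter model to normalized 665/620 nm HTRF ratios, 0% = no compound, 100% = no agonist. Assay measured IP1 accumulation in human GnRH-R CHO cells stimulated 1 h at 37° C with EC80 buserelin, then lysed 1 h at 22° C.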

In the case of `N#Cc1ccc(S(=O)(=O)N2c3ccc(C(=O)Nc4ccccc4F)cc3C3(CCS(=O)(=O)CC3)C2C2CC2)cc1` (stereo not drawn) [Example 75, 1-[(4-cyanophenyl)sulfonyl]-2-cyclopropyl-N-(2-fluorophenyl)-1,2,2′,3′,5′,6′-hexahydrospiro[indole-3,4′-thiopyran]-5-carboxamide 1′,1′-dioxide], the IC50 (human GnRHR) is reported as 30 nM and the IC50 (human GnRH receptor) is reported as 53 nM.

For `O=C(Nc1ccccc1Cl)c1ccc2c(c1)C1(CCS(=O)(=O)CC1)C(C1CC1)N2S(=O)(=O)c1ccc(F)cc1` (stereo not drawn) [Example 67, N-(2-chlorophenyl)-2-cyclopropyl-1-[(4-fluorophenyl)sulfonyl]-1,2,2′,3′,5′,6′-hexahydrospiro[indole-3,4′-thiopyran]-5-carboxamide 1′,1′-dioxide], the IC50 (human GnRHR) was 154 nM and the IC50 (human GnRH receptor) was 113 nM.

For `O=C(Nc1cccc(Cl)c1)c1ccc2c(c1)C1(CCS(=O)(=O)CC1)C(C1CC1)N2S(=O)(=O)c1ccc(F)cc1` (stereo not drawn) [Example 24, N-(3-chlorophenyl)-2-cyclopropyl-1-[(4-fluorophenyl)sulfonyl]-1,2,2′,3′,5′,6′-hexahydrospiro[indole-3,4′-thiopyran]-5-carboxamide 1′,1′-dioxide], the IC50 (human GnRHR) was 187 nM and the IC50 (human GnRH receptor) was 264 nM.

Compound `O=C(NCc1ccccc1Cl)c1ccc2c(c1)C1(CCS(=O)(=O)CC1)C(C1CC1)N2S(=O)(=O)c1ccc(F)cc1` (single isomer, unassigned) [Example 18.1, N-(2-chlorobenzyl)-2-cyclopropyl-1-[(4-fluorophenyl)sulfonyl]-1,2,2′,3′,5′,6′-hexahydrospiro[indole-3,4′-thiopyran]-5-carboxamide 1′,1′-dioxide] has an IC50 (human GnRHR) of 11 nM and an IC50 (human GnRH receptor) of 26 nM.

Compound `O=C(NCc1ccccc1C(F)F)c1ccc2c(c1)C1(CCS(=O)(=O)CC1)C(C1CC1)N2S(=O)(=O)c1ccc(F)cc1` (single isomer, unassigned) [Example 68.1, 2-cyclopropyl-N-[2-(difluoromethyl)benzyl]-1-[(4-fluorophenyl)sulfonyl]-1,2,2′,3′,5′,6′-hexahydrospiro[indole-3,4′-thiopyran]-5-carboxamide 1′,1′-dioxide] has an IC50 (human GnRHR) of 9.5 nM and an IC50 (human GnRH receptor) of 4.2 nM.

`O=C(NCc1ccccc1Cl)c1ccc2c(c1)C1(CC[S+]([O-])CC1)C(C1CC1)N2S(=O)(=O)c1ccc(F)cc1` (single isomer, unassigned) [Example 13.1, N-(2-Chlorobenzyl)-2-cyclopropyl-1-[(4-fluorophenyl)sulfonyl]-1,2,2′,3′,5′,6′-hexahydrospiro[indole-3,4′-thiopyran]-5-carboxamide 1′-oxide] showed an IC50 (human GnRHR) of 8.5 nM and an IC50 (human GnRH receptor) of 12 nM.

`COc1cccc(S(=O)(=O)N2c3ccc(C(=O)Nc4cccc(S(N)(=O)=O)c4)cc3C3(CCS(=O)(=O)CC3)C2C2CC2)c1` (stereo not drawn) [Example 42, 2-cyclopropyl-1-[(3-methoxyphenyl)sulfonyl]-N-(3-sulfamoylphenyl)-1,2,2′,3′,5′,6′-hexahydrospiro[indole-3,4′-thiopyran]-5-carboxamide 1′,1′-dioxide] showed an IC50 (human GnRH receptor) of 96 nM.

With `COc1cccc(S(=O)(=O)N2c3ccc(C(=O)NCc4ccccc4Cl)cc3C3(CCS(=O)(=O)CC3)C2C2CC2)c1` (single isomer, unassigned) [Example 44.2, N-(2-chlorobenzyl)-2-cyclopropyl-1-[(3-methoxyphenyl)sulfonyl]-1,2,2′,3′,5′,6′-hexahydrospiro[indole-3,4′-thiopyran]-5-carboxamide 1′,1′-dioxide] the IC50 (human GnRH receptor) was 302 nM.

Compound `COc1cccc(S(=O)(=O)N2c3ccc(C(=O)NCc4ccccc4Cl)cc3C3(CCS(=O)(=O)CC3)C2C2CC2)c1` (stereo not drawn) [Example 44, N-(2-chlorobenzyl)-2-cyclopropyl-1-[(3-methoxyphenyl)sulfonyl]-1,2,2′,3′,5′,6′-hexahydrospiro[indole-3,4′-thiopyran]-5-carboxamide 1′,1′-dioxide] has an IC50 (human GnRH receptor) of 31 nM.
